Data reported in the supplement of paper PMC13380429.

Key:
[1] = system: HepG2; assay: drug sensitivity score (DSS) for viability; higher = more toxic; extreme values may be limits of the assay; conditions: 72 h
[2] = system: Caco-2; assay: as above; conditions: 72 h
[3] = system: Vero E6; assay: as above; conditions: 72 h
[4] = system: U2OS; assay: as above; conditions: 72 h
[5] = system: Calu-3; assay: as above; conditions: 72 h
[6] = system: HepG2; assay: relative viability EC50 (midpoint between 100% and the lowest measured viability); higher = less toxic; conditions: 72 h
[7] = system: Caco-2; assay: as above; conditions: 72 h
[8] = system: Vero E6; assay: as above; conditions: 72 h
[9] = system: U2OS; assay: as above; conditions: 72 h
[10] = system: Calu-3; assay: as above; conditions: 72 h
[11] = system: HepG2; assay: cell viability relative to DMSO; higher = less toxic; conditions: 72 h
[12] = system: Caco-2; assay: as above; conditions: 72 h
[13] = system: Vero E6; assay: as above; conditions: 72 h
[14] = system: U2OS; assay: as above; conditions: 72 h
[15] = system: Calu-3; assay: as above; conditions: 72 h
[16] = system: A549-ACE2 infected with SARS-CoV-2; assay: cell count relative to DMSO; higher = less toxic; conditions: 24 h
[17] = system: A549-ACE2 infected with SARS-CoV-2; assay: SARS-CoV-2 infection rate relative to DMSO; higher = more infection; conditions: 24 h
[18] = system: A549-ACE2 infected with SARS-CoV-2; assay: morphology score (similarity to uninfected cells); higher = more like uninfected cells; conditions: 24 h
[19] = system: A549-ACE2; assay: phospholipidosis EC50; higher = less potent phospholipidosis inducer
[20] = system: A549-ACE2; assay: drug-induced phospholipidosis relative to tamoxifen; higher = more phospholipidosis

CCCc1c(OCCCCc2nnn[nH]2)ccc(C(C)=O)c1O [tomelukast]
Conditions | drug sensitivity score | relative viability EC50 [µM]
[1] | 1.5 | –
[2] | 0 | –
[3] | 0 | –
[4] | 0 | –
[5] | 0 | –
[6] | – | > 10
[7] | – | > 10
[8] | – | > 10
[9] | – | > 10
[10] | – | > 10

cell viability [%]
Conditions | [11] | [12] | [13] | [14] | [15]
1 nM | 95.6 | 88.9 | 94.5 | 94.9 | 87.4
10 nM | 90.3 | 93.9 | 98.5 | 103 | 105
100 nM | 94.5 | 97.8 | 107 | 98.1 | 107
1000 nM | 82.9 | 105 | 96.6 | 99.7 | 102
10000 nM | 84.8 | 97.6 | 106 | 99.6 | 104

CN(C)CCOc1ccc(/C(=C(/CCCl)c2ccccc2)c2ccccc2)cc1 [toremifene]
Conditions | drug sensitivity score | relative viability EC50 [µM]
[1] | 3.6 | –
[2] | 4.6 | –
[3] | 3.2 | –
[4] | 2.8 | –
[5] | 5.7 | –
[6] | – | 3.4
[7] | – | 2.13
[10] | – | 2.5

Conditions | SARS-CoV-2 infection rate [%] | cell count [%] | cell viability [%] | morphology score | phospholipidosis EC50 [µM]
[11], 1 nM | – | – | 105 | – | –
[11], 10 nM | – | – | 82.5 | – | –
[11], 100 nM | – | – | 104 | – | –
[11], 1000 nM | – | – | 103 | – | –
[11], 10000 nM | – | – | 29.9 | – | –
[12], 1 nM | – | – | 100 | – | –
[12], 10 nM | – | – | 98.1 | – | –
[12], 100 nM | – | – | 105 | – | –
[12], 1000 nM | – | – | 92.3 | – | –
[12], 10000 nM | – | – | 39.8 | – | –
[13], 1 nM | – | – | 98.4 | – | –
[13], 10 nM | – | – | 101 | – | –
[13], 100 nM | – | – | 90.4 | – | –
[13], 1000 nM | – | – | 95.3 | – | –
[13], 10000 nM | – | – | 53.6 | – | –
[14], 1 nM | – | – | 97.6 | – | –
[14], 10 nM | – | – | 94.9 | – | –
[14], 100 nM | – | – | 99.4 | – | –
[14], 1000 nM | – | – | 91.3 | – | –
[14], 10000 nM | – | – | 66.7 | – | –
[15], 1 nM | – | – | 90.6 | – | –
[15], 10 nM | – | – | 106 | – | –
[15], 100 nM | – | – | 104 | – | –
[15], 1000 nM | – | – | 93.1 | – | –
[15], 10000 nM | – | – | 15.8 | – | –
[16], 0.1 µM | – | 100 | – | – | –
[16], 0.3 µM | – | 107 | – | – | –
[16], 1 µM | – | 107 | – | – | –
[16], 3 µM | – | 127 | – | – | –
[17], 0.1 µM | 105 | – | – | – | –
[17], 0.3 µM | 88 | – | – | – | –
[17], 1 µM | 89 | – | – | – | –
[17], 3 µM | 44 | – | – | – | –
[18], 0.1 µM | – | – | – | -0.1 | –
[18], 0.3 µM | – | – | – | 0.28 | –
[18], 1 µM | – | – | – | 0.36 | –
[18], 3 µM | – | – | – | 0.76 | –
[19], 24 h | – | – | – | – | 15
[19], 48 h | – | – | – | – | 1.48
[19], 72 h | – | – | – | – | 1.65

drug-induced phospholipidosis [%], [20]
Conditions | 0.3 µM | 0.833333 µM | 3.33333 µM | 6.66667 µM | 10 µM | 30 µM
24 h | 8.6 | 44.5 | 103 | 115 | 116 | 416
48 h | 7.64 | 34.2 | 102 | 117 | 121 | –
72 h | 6.92 | 27.5 | 102 | 112 | 125 | –

CN1C(=O)OC(C)(C)C1=O [trimethadione]
Conditions | drug sensitivity score | relative viability EC50 [µM]
[1] | 3.4 | –
[2] | 0 | –
[3] | 0 | –
[4] | 0 | –
[5] | 0 | –
[6] | – | > 10
[7] | – | > 10
[8] | – | > 10
[9] | – | > 10
[10] | – | > 10

cell viability [%]
Conditions | [11] | [12] | [13] | [14] | [15]
1 nM | 103 | 101 | 100 | 103 | 96.1
10 nM | 105 | 97.3 | 100 | 99.9 | 102
100 nM | 93.6 | 114 | 101 | 103 | 97.9
1000 nM | 80.4 | 90 | 85.1 | 105 | 118
10000 nM | 90 | 93.3 | 104 | 108 | 108

COc1cc(C[C@@H]2NCCc3cc(O)c(O)cc32)cc(OC)c1OC [trimethoquinol]
Conditions | drug sensitivity score | relative viability EC50 [µM]
[1] | 1.1 | –
[2] | 0.3 | –
[3] | 0 | –
[4] | 0 | –
[5] | 0 | –
[6] | – | > 10
[7] | – | > 10
[8] | – | > 10
[9] | – | > 10
[10] | – | > 10

cell viability [%]
Conditions | [11] | [12] | [13] | [14] | [15]
1 nM | 110 | 91.3 | 103 | 89.5 | 91.7
10 nM | 99.2 | 114 | 93.1 | 97 | 88.9
100 nM | 112 | 118 | 108 | 97.3 | 101
1000 nM | 90.6 | 107 | 93.8 | 102 | 86
10000 nM | 83.5 | 80.3 | 96.9 | 107 | 95.7

N#CC(C#N)=Cc1ccc(O)c(O)c1 [tyrphostin-AG-18]
Conditions | drug sensitivity score | relative viability EC50 [µM]
[1] | 0 | –
[2] | 0 | –
[3] | 0 | –
[4] | 0 | –
[5] | 0 | –
[6] | – | > 10
[7] | – | > 10
[8] | – | > 10
[9] | – | > 10
[10] | – | > 10

cell viability [%]
Conditions | [11] | [12] | [13] | [14] | [15]
1 nM | 93 | 88.2 | 96.4 | 96.1 | 93.5
10 nM | 96.8 | 96.4 | 92.1 | 98.1 | 104
100 nM | 97.7 | 93.9 | 96.6 | 95.2 | 105
1000 nM | 102 | 89.2 | 94.9 | 96.5 | 107
10000 nM | 87.9 | 91.6 | 94.9 | 92.1 | 111

COc1cc(N)c(Cl)cc1C(=O)NC1CN2CCC1CC2 (centres undefined) [zacopride]
Conditions | drug sensitivity score | relative viability EC50 [µM]
[1] | 0 | –
[2] | 0 | –
[3] | 0 | –
[4] | 0 | –
[5] | 0 | –
[6] | – | > 10
[7] | – | > 10
[8] | – | > 10
[9] | – | > 10
[10] | – | > 10

cell viability [%]
Conditions | [11] | [12] | [13] | [14] | [15]
1 nM | 107 | 101 | 98.9 | 92.5 | 96.9
10 nM | 99.5 | 97.6 | 92.8 | 96.3 | 100
100 nM | 102 | 97.6 | 97.9 | 96.7 | 97
1000 nM | 100 | 95.7 | 97.4 | 98.3 | 85
10000 nM | 109 | 110 | 106 | 92.2 | 95.3
